“Also recorded” adds a separate entry of the source.
Legend:
GBM culture 103 = assay: Cytotoxicity of NXD30001 and 17-AAG in GBM cultures; assay type: cell-based, mouse; conditions: GBM 103; mean of three independent experiments ± standard deviation
Protocol: (§1) Primary cultures of tumors or newborn mice astrocytes were established as follows: tumors or P0 neonate cortices were excised and minced in 0.25% trypsin (wt/vol) 1 mM EDTA and allowed to disaggregate for 15 min at 37° C. The resulting cell suspension was then strained through a 70-μm cell strainer (Falcon). The single suspension of cells was washed in PBS twice and plated on 0.2% gelatin-coated tissue culture plates. Cells were fed every 24 hr with fresh medium that consisted of DMEM supplemented with 10% heat-inactivated FBS and antibiotics. The primary cultures of astrocytes were routinely stained for markers of astrocytic lineages by immunofluorescence.
(§2) Cytotoxicity of NXD30001 was assessed in GMB cell proliferating cultures obtained from clinical mouse subjects and was compared to that of 17-(Allylamino)-17-demethoxygeldanamycin (17-AAG), an ansamycin antibiotic which binds to HSP90. Data obtained was analyzed as half maximum inhibitory concentration (1050) values (Table 3).

GBM culture 46 = assay: as above; assay type: cell-based, mouse; conditions: GBM 46; mean of three independent experiments ± standard deviation
Protocol: as §1, §2

GBM-2 cells = assay: as above; assay type: cell-based, mouse; conditions: mean of three independent experiments ± standard deviation
Protocol: as §1, §2

GBM culture 102 = assay: as above; assay type: cell-based, mouse; conditions: GBM 102; mean of three independent experiments ± standard deviation
Protocol: as §1, §2

GBM culture 42 = assay: as above; assay type: cell-based, mouse; conditions: GBM 42; mean of three independent experiments ± standard deviation
Protocol: as §1, §2

GBM culture 2734 = assay: as above; assay type: cell-based, mouse; conditions: GBM 2734; mean of three independent experiments ± standard deviation
Protocol: as §1, §2

GBM culture 2414 = assay: as above; assay type: cell-based, mouse; conditions: GBM 2414; mean of three independent experiments ± standard deviation
Protocol: as §1, §2

GBM culture 2231 = assay: as above; assay type: cell-based, mouse; conditions: GBM 2231; mean of three independent experiments ± standard deviation
Protocol: as §1, §2

GBM-1 cells = assay: as above; assay type: cell-based, mouse; conditions: mean of three independent experiments ± standard deviation
Protocol: as §1, §2

GBM culture 2000 = assay: as above; assay type: cell-based, mouse; conditions: GBM 2000; mean of three independent experiments ± standard deviation
Protocol: as §1, §2

GBM culture 2415 = assay: as above; assay type: cell-based, mouse; conditions: GBM 2415; mean of three independent experiments ± standard deviation
Protocol: as §1, §2

GBM culture 2227 = assay: as above; assay type: cell-based, mouse; conditions: GBM 2227; mean of three independent experiments ± standard deviation
Protocol: as §1, §2

GBM culture 69 = assay: as above; assay type: cell-based, mouse; conditions: GBM 69; mean of three independent experiments ± standard deviation
Protocol: as §1, §2

GBM culture 41 = assay: as above; assay type: cell-based, mouse; conditions: GBM 41; mean of three independent experiments ± standard deviation
Protocol: as §1, §2

GBMs = conditions: GBM patients; cited from earlier work
[1] = system: recurrent and newly diagnosed GBMs; conditions: unselected patients; phase II; cited from earlier work
[2] = system: GBM tumors in conditional EGFR animals; conditions: animal number 2148; 80 days
Protocol: Bioluminescence was measured noninvasively using the IVIS 200 imaging system (Xenogen). For live imaging, the surface areas of focus for imaging were depilated using commercial depilatory creams. Images were taken 10 min after IP injection of luciferin (225 mg/kg, Xenogen) to allow sufficient time for distribution of luciferin, with a 60 second photon acquisition during which mice were sedated via continuous inhalation of 3% isoflurane. For organ imaging post luciferin injection, animals were incubated for 10 min and perfused transcardially with saline. Bioluminescence imaging was then performed on individually dissected organs. Signal intensity was quantified for defined regions of interest as photon count rate per unit body area per unit solid angle subtended by the detector (units of photons/s/cm^2/steradian). All image analyses and bioluminescent quantification were performed using Living Image software v. 2.50 (Xenogen).
Conditional EGFR animals were examined using bioluminescence imaging at different periods of time after tumor induction with Ad-Cre-recombinase by the methods above.

With C=CCNC1=C2C[C@@H](C)C[C@H](OC)[C@H](O)[C@@H](C)/C=C(\C)[C@H](OC(N)=O)[C@@H](OC)/C=C\C=C(/C)C(=O)NC(=CC1=O)C2=O [17-AAG, 17-(Allylamino)-17-demethoxygeldanamycin] the IC50 (GBM culture 103) was 794 ± 28.7 nM, the IC50 (GBM culture 46) was 91.9 ± 1.4 nM and the IC50 (GBM-2 cells) was 1100 ± 119 nM. It also gave an IC50 (GBM culture 102) of 626.2 ± 6 nM, an IC50 (GBM culture 42) of 166 ± 24.9 nM and an IC50 (GBM culture 2734) of 381 nM. It also gave an IC50 (GBM culture 2414) of 205 ± 13.1 nM, an IC50 (GBM culture 2231) of 737 ± 72 nM and an IC50 (GBM-1 cells) of 208 ± 9.6 nM. The IC50 (GBM culture 2000) was 345 ± 75.5 nM, the IC50 (GBM culture 2415) was 329 ± 50.1 nM and the IC50 (GBM culture 2227) was 712 nM. It also gave an IC50 (GBM culture 69) of 91 nM and an IC50 (GBM culture 41) of 100 ± 5 nM.
In the case of CO[C@H]1C[C@@H]2CC[C@@H](C)[C@@](O)(O2)C(=O)C(=O)N2CCCC[C@H]2C(=O)O[C@H]([C@H](C)C[C@@H]2CC[C@@H](OC(=O)C(C)(CO)CO)[C@H](OC)C2)CC(=O)[C@H](C)/C=C(\C)[C@@H](O)[C@@H](OC)C(=O)[C@H](C)C[C@H](C)/C=C/C=C/C=C/1C [temsirolimus], the “Phase II results of two clinical trials” value (GBMs) is listed as “negative, with no improvement in response rates, progression-free survival or overall survival”.
For C#Cc1cccc(Nc2ncnc3cc(OCCOC)c(OCCOC)cc23)c1 [Tarceva, erlotinib], the overall efficacy [1] is listed as “minimal when compared with historical data” and the “outcome by bioluminescence imaging” value [2] is listed as “essentially cured by treatment; also recorded: essentially been cured of cancer”.
In the case of COc1cc2ncnc(Nc3ccc(F)c(Cl)c3)c2cc1OCCCN1CCOCC1 [gefitinib], the overall efficacy [1] is listed as “minimal when compared with historical data”.
